One assay concerns the target Tyro3 (Homo sapiens (Human), UniProt Q06418). In words: biochemical. The settings on record: read-out: Tyro3IC50.
A further assay deals with c-Mer (Homo sapiens (Human), UniProt Q12866). The settings on record: read-out: c-Mer IC50; HTRF, 60 min room temperature. A general note: In TR-FRET formats the signal depends on donor and acceptor labels being close together.
The target of another assay is Phospho-Axl (Homo sapiens (Human), UniProt P30530). In words: biochemical. The settings on record: HTRF, 60 min room temperature.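 Further: test system is recombinant Axl protein that was first autophosphorylated with ATP and MgCl2.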
Phospho-Axl, sequence (P30530 26-894): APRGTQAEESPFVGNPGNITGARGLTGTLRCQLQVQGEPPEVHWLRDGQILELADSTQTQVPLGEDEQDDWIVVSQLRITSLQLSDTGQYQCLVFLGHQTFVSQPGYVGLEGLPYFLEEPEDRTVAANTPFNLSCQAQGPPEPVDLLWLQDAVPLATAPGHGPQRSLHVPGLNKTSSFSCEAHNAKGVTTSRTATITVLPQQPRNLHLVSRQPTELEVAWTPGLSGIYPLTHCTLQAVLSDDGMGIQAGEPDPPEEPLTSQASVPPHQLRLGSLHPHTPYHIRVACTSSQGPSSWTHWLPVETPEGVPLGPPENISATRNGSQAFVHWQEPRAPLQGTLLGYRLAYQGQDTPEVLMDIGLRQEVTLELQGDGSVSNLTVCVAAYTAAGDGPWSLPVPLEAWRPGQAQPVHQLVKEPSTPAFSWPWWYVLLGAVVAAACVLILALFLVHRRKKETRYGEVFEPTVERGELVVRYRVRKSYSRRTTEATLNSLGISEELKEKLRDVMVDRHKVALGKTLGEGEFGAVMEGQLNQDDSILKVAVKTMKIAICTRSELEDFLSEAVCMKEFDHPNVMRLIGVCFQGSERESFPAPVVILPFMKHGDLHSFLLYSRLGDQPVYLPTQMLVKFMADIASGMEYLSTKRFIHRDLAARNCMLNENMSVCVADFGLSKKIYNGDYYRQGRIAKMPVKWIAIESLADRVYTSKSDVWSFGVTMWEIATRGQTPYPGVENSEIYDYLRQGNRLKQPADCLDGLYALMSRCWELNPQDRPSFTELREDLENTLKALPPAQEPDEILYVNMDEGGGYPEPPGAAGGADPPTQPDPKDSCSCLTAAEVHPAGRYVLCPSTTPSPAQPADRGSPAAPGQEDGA

c-Mer, sequence (Q12866 21-999): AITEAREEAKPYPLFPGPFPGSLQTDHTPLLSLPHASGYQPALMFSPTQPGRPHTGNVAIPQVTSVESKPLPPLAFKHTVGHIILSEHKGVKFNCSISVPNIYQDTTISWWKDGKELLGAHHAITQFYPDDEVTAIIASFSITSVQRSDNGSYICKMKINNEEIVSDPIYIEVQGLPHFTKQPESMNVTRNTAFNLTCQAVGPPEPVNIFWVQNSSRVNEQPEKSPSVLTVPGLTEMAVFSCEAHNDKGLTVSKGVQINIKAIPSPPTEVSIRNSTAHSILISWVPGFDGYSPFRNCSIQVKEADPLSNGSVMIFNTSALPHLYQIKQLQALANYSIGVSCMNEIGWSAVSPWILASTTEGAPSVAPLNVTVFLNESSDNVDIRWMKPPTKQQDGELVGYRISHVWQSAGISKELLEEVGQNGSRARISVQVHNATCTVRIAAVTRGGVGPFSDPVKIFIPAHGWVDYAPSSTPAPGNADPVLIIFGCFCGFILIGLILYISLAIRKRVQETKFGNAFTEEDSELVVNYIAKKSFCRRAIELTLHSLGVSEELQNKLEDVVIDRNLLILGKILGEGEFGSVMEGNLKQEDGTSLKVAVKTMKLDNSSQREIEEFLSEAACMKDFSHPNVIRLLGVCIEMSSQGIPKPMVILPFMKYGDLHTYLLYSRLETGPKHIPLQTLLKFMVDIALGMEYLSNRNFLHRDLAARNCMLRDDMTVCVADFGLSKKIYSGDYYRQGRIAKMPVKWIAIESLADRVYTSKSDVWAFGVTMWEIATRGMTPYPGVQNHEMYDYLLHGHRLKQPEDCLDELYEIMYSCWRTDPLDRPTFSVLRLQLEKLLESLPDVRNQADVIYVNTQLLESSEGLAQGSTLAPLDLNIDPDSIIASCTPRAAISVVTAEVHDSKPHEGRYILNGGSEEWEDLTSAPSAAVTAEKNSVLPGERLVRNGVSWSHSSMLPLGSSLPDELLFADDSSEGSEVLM
Tyro3, sequence (Q06418 41-890): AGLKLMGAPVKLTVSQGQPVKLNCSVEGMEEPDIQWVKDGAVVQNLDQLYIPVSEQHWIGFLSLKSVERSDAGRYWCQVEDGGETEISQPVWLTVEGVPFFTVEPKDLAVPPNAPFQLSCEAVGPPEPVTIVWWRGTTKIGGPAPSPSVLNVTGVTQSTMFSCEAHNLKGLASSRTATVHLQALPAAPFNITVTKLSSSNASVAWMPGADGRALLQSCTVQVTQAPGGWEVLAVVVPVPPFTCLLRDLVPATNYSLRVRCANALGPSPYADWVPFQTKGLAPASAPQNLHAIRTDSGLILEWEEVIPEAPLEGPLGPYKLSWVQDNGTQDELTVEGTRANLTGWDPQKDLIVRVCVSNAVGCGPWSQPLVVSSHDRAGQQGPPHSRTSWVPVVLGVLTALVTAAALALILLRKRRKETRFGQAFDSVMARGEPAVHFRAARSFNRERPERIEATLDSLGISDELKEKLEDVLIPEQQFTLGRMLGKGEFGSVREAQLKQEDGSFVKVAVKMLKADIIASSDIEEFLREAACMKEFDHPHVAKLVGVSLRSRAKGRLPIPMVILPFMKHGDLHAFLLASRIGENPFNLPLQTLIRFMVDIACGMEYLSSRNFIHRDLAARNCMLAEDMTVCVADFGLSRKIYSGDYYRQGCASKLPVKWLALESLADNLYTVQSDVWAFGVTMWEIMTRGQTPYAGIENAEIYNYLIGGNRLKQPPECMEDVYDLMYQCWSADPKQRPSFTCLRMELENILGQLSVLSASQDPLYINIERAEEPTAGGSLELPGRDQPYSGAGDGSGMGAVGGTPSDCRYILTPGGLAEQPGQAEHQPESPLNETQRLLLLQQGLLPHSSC
Experimental for Phospho-Axl: Autophosphorylation of Axl was carried out by incubating the recombinant Axl protein (Life Technologies, PV4275) in buffer containing 50 mM Tris, pH7.5, 0.2 mg/ml Axl, 5 mM ATP, 20 mM MgCl2 and 2 mM DTT at room temperature for 1 hour.
(§1) 0.1 ul test compounds dissolved in DMSO were transferred from compound plates to white 384-well assay plates (Greiner [sequence] plates). […] The plate was protected from light and incubated at room temperature for 60 min.
Experimental for Tyro3: as §1
Experimental for c-Mer: as §1

Take `NCC1(c2cccc(-c3ncnc4[nH]ccc34)c2)Cc2ccc(-c3cccnc3)cc2C1` (stereo not shown) [Example 77, (2-(3-(7H-Pyrrolo[2,3-d]pyrimidin-4-yl)phenyl)-5-(pyridin-3-yl)-2,3-dihydro-1H-inden-2-yl)methanamine]: the IC50 at Tyro3 was less than 0.5 µM; at c-Mer, greater than 3 µM.
`N#CCC1(c2cccc(-c3ncnc4[nH]ccc34)c2)Cc2ccccc2C1` [Example 36, {2-[3-(7H-Pyrrolo[2,3-d]pyrimidin-4-yl)phenyl]-2,3-dihydro-1H-inden-2-yl}acetonitrile]: the IC50 on Tyro3 is greater than 3 µM.
On to `NCC1(c2cccc(-c3ncnc4[nH]ccc34)c2)Cc2ccc(N3CCCC(O)C3)cc2C1` (stereo not shown) [Example 58, 1-{2-(Aminomethyl)-2-[3-(7H-pyrrolo[2,3-d]pyrimidin-4-yl)phenyl]-2,3-dihydro-1H-inden-5-yl}piperidin-3-ol], for which the IC50 on Tyro3 is less than 0.5 µM; at c-Mer it was greater than 3 µM.
For `NCCC1(c2cccc(-c3ncnc4[nH]ccc34)c2)Cc2ccccc2C1` [Example 37, 2-{2-[3-(7H-Pyrrolo[2,3-d]pyrimidin-4-yl)phenyl]-2,3-dihydro-1H-inden-2-yl}ethanamine], the IC50 against Phospho-Axl was less than 0.5 µM; on Tyro3 it was greater than 3 µM.
Regarding `N#Cc1ccc2c(c1)CC(CNC(=O)C1CC1)(c1cccc(-c3ncnc4[nH]ccc34)c1)C2` (stereo not shown) [Example 50, N-({5-Cyano-2-[3-(7H-pyrrolo[2,3-d]pyrimidin-4-yl)phenyl]-2,3-dihydro-1H-inden-2-yl}methyl)cyclopropanecarboxamide], at Tyro3, the IC50 was greater than 3 µM.
Take `NCC1(c2cccc(-c3ncnc4[nH]ccc34)c2)Cc2ccc(CN3CC(F)C3)cc2C1` (stereo not shown) [Example 47, (2-(3-(7H-Pyrrolo[2,3-d]pyrimidin-4-yl)phenyl)-5-((3-fluoroazetidin-1-yl)methyl)-2,3-dihydro-1H-inden-2-yl)methanamine]: on c-Mer, the IC50 was greater than 3 µM.
Consider `NCC1(c2cccc(-c3ncnc4[nH]ccc34)c2)Cc2ccc(-c3cccc(F)c3)cc2C1` (stereo not shown) [Example 70, 1-{5-(3-Fluorophenyl)-2-[3-(7H-pyrrolo[2,3-d]pyrimidin-4-yl)phenyl]-2,3-dihydro-1H-inden-2-yl}methanamine], for which the IC50 on c-Mer was greater than 3 µM.
For the compound `CN(C)C1CCN(c2ccc3c(c2)CC(CN)(c2cccc(-c4ncnc5[nH]ccc45)c2)C3)C1` (stereo not shown) [Example 52, 1-{2-(Aminomethyl)-2-[3-(7H-pyrrolo[2,3-d]pyrimidin-4-yl)phenyl]-2,3-dihydro-1H-inden-5-yl}-N,N-dimethylpyrrolidin-3-amine], the IC50 on Phospho-Axl and on Tyro3 was greater than 3 µM in each case.
As for `CC(C)C(=O)NCCC1(c2cccc(-c3ncnc4[nH]ccc34)c2)Cc2ccccc2C1` [Example 38, 2-Methyl-N-(2-{2-[3-(7H-pyrrolo[2,3-d]pyrimidin-4-yl)phenyl]-2,3-dihydro-1H-inden-2-yl}ethyl)propanamide], the IC50 at Tyro3 was greater than 3 µM.
For `NCC1(c2cccc(-c3ncnc4[nH]ccc34)c2)Cc2ccc(CNC3CC3)cc2C1` (stereo not shown) [Example 40, N-((2-(3-(7H-Pyrrolo[2,3-d]pyrimidin-4-yl)phenyl)-2-(aminomethyl)-2,3-dihydro-1H-inden-5-yl)methyl)cyclopropanamine], the IC50 at Tyro3 and on c-Mer was greater than 3 µM in each case.
As for `NCC1(c2cccc(-c3ncnc4[nH]ccc34)c2)Cc2ccc(CN3CCC[C@@H]3C(N)=O)cc2C1` (stereo partly drawn) [Example 43, (2R)-1-((2-(3-(7H-Pyrrolo[2,3-d]pyrimidin-4-yl)phenyl)-2-(aminomethyl)-2,3-dihydro-1H-inden-5-yl)methyl)pyrrolidine-2-carboxamide], the IC50 on Phospho-Axl and on Tyro3 was greater than 3 µM each time.
Consider `N#CC1CCN(c2ccc3c(c2)CC(CN)(c2cccc(-c4ncnc5[nH]ccc45)c2)C3)CC1` (stereo not shown) [Example 59, 1-{2-(Aminomethyl)-2-[3-(7H-pyrrolo[2,3-d]pyrimidin-4-yl)phenyl]-2,3-dihydro-1H-inden-5-yl}piperidine-4-carbonitrile], for which the IC50 at c-Mer was greater than 3 µM.
Turning to `Cc1cc2c(-c3cccc(C4(CN)Cc5ccccc5C4)c3)ncnc2[nH]1` [Example 93, 1-{2-[3-(6-Methyl-7H-pyrrolo[2,3-d]pyrimidin-4-yl)phenyl]-2,3-dihydro-1H-inden-2-yl}methanamine], the IC50 at Tyro3 was greater than 3 µM.
For the compound `O=C(NCC1(c2cccc(-c3ncnc4[nH]ccc34)c2)Cc2ccccc2C1)N1CCOCC1` [Example 35, N-({2-[3-(7H-Pyrrolo[2,3-d]pyrimidin-4-yl)phenyl]-2,3-dihydro-1H-inden-2-yl}methyl)morpholine-4-carboxamide], the IC50 on Tyro3 and at c-Mer was greater than 3 µM in each case.
With `NCC1(c2cccc(-c3ncnc4[nH]ccc34)c2)Cc2ccc(CN3CC[C@H](C(N)=O)C3)cc2C1` (stereo partly drawn) [Example 44, (3S)-1-((2-(3-(7H-Pyrrolo[2,3-d]pyrimidin-4-yl)phenyl)-2-(aminomethyl)-2,3-dihydro-1H-inden-5-yl)methyl)pyrrolidine-3-carboxamide], the IC50 on c-Mer is greater than 3 µM.
On to `NCC1(c2cccc(-c3ncnc4[nH]ccc34)c2)Cc2ccc(CNC3CCC3)cc2C1` (stereo not shown) [Example 41, N-((2-(3-(7H-Pyrrolo[2,3-d]pyrimidin-4-yl)phenyl)-2-(aminomethyl)-2,3-dihydro-1H-inden-5-yl)methyl)cyclobutanamine], for which the IC50 on Tyro3 and at c-Mer was greater than 3 µM throughout.
With `NCC1(c2cccc(-c3ncnc4[nH]ccc34)c2)Cc2ccc(-c3ccc(N4CCCC4)nc3)cc2C1` (stereo not shown) [Example 75, 1-{5-(6-Pyrrolidin-1-ylpyridin-3-yl)-2-[3-(7H-pyrrolo[2,3-d]pyrimidin-4-yl)phenyl]-2,3-dihydro-1H-inden-2-yl}methanamine], the IC50 is less than 0.5 µM against Phospho-Axl and greater than 3 µM at Tyro3.
Turning to `NCC1(c2cccc(-c3ncnc4[nH]ccc34)c2)Cc2ccc(NC3CCOCC3)cc2C1` (stereo not shown) [Example 60, N-{2-(Aminomethyl)-2-[3-(7H-pyrrolo[2,3-d]pyrimidin-4-yl)phenyl]-2,3-dihydro-1H-inden-5-yl}tetrahydro-2H-pyran-4-amine], on c-Mer, the IC50 was greater than 3 µM.
For the compound `NCC1(c2cccc(-c3ncnc4[nH]ccc34)c2)Cc2ccc(-c3ccc(F)cc3)cc2C1` (stereo not shown) [Example 71, 1-{5-(4-Fluorophenyl)-2-[3-(7H-pyrrolo[2,3-d]pyrimidin-4-yl)phenyl]-2,3-dihydro-1H-inden-2-yl}methanamine], the IC50 at c-Mer was greater than 3 µM.
As to `COCC1(Nc2ccc3c(c2)CC(CN)(c2cccc(-c4ncnc5[nH]ccc45)c2)C3)CC1` (stereo not shown) [Example 67, 2-(Aminomethyl)-N-[1-(methoxymethyl)cyclopropyl]-2-[3-(7H-pyrrolo[2,3-d]pyrimidin-4-yl)phenyl]indan-5-amine], at Tyro3, the IC50 is greater than 3 µM.
With `CC(O)C1CCN(c2ccc3c(c2)CC(CN)(c2cccc(-c4ncnc5[nH]ccc45)c2)C3)C1` (stereo not shown) [Example 55, 1-(1-{2-(Aminomethyl)-2-[3-(7H-pyrrolo[2,3-d]pyrimidin-4-yl)phenyl]-2,3-dihydro-1H-inden-5-yl}pyrrolidin-3-yl)ethanol], the IC50 on Phospho-Axl and at Tyro3 was greater than 3 µM throughout.
As to `NCC1(c2cccc(-c3ncnc4[nH]ccc34)c2)Cc2ccc(N3CCCC3)cc2C1` (stereo not shown) [Example 61, 1-{5-Pyrrolidin-1-yl-2-[3-(7H-pyrrolo[2,3-d]pyrimidin-4-yl)phenyl]-2,3-dihydro-1H-inden-2-yl}methanamine], on Tyro3, the IC50 was greater than 3 µM.
In the case of `CNC1CCN(c2ccc3c(c2)CC(CN)(c2cccc(-c4ncnc5[nH]ccc45)c2)C3)C1` (stereo not shown) [Example 53, 1-{2-(Aminomethyl)-2-[3-(7H-pyrrolo[2,3-d]pyrimidin-4-yl)phenyl]-2,3-dihydro-1H-inden-5-yl}-N-methylpyrrolidin-3-amine], the IC50 at Phospho-Axl and on Tyro3 was greater than 3 µM in each case.
As for `CN(C)c1ccc(-c2ccc3c(c2)CC(CN)(c2cccc(-c4ncnc5[nH]ccc45)c2)C3)cc1` (stereo not shown) [Example 72, 4-{2-(Aminomethyl)-2-[3-(7H-pyrrolo[2,3-d]pyrimidin-4-yl)phenyl]-2,3-dihydro-1H-inden-5-yl}-N,N-dimethylaniline], the IC50 at Phospho-Axl and on Tyro3 was less than 0.5 µM in each case.
On to `NCC1(c2cccc(-c3ncnc4[nH]ccc34)c2)Cc2ccc(N3CCC(O)C3)cc2C1` (stereo not shown) [Example 54, 1-{2-(Aminomethyl)-2-[3-(7H-pyrrolo[2,3-d]pyrimidin-4-yl)phenyl]-2,3-dihydro-1H-inden-5-yl}pyrrolidin-3-ol], for which, at Tyro3, the IC50 is greater than 3 µM.
`COCCCNc1ccc2c(c1)CC(CN)(c1cccc(-c3ncnc4[nH]ccc34)c1)C2` (stereo not shown) [Example 66, 2-(Aminomethyl)-N-(3-methoxypropyl)-2-[3-(7H-pyrrolo[2,3-d]pyrimidin-4-yl)phenyl]indan-5-amine]: on Tyro3, the IC50 is greater than 3 µM.
Consider `NCC1(c2cccc(-c3ncnc4[nH]ccc34)c2)Cc2ccc(-c3ccncc3)cc2C1` (stereo not shown) [Example 78, (2-(3-(7H-Pyrrolo[2,3-d]pyrimidin-4-yl)phenyl)-5-(pyridin-4-yl)-2,3-dihydro-1H-inden-2-yl)methanamine], for which, on c-Mer, the IC50 was greater than 3 µM.
Consider `O=C(NCCC1(c2cccc(-c3ncnc4[nH]ccc34)c2)Cc2ccccc2C1)C1CC1` [Example 39, N-(2-{2-[3-(7H-Pyrrolo[2,3-d]pyrimidin-4-yl)phenyl]-2,3-dihydro-1H-inden-2-yl}ethyl)cyclopropanecarboxamide], for which the IC50 at Phospho-Axl is less than 0.5 µM; on Tyro3, greater than 3 µM.
Regarding `NCC1(c2cccc(-c3ncnc4[nH]ccc34)c2)Cc2ccc(CN3CCC3)cc2C1` (stereo not shown) [Example 46, (2-(3-(7H-Pyrrolo[2,3-d]pyrimidin-4-yl)phenyl)-5-(azetidin-1-ylmethyl)-2,3-dihydro-1H-inden-2-yl)methanamine], on c-Mer, the IC50 is greater than 3 µM.
Turning to `NCC1(c2cccc(-c3ncnc4[nH]ccc34)c2)Cc2ccc(-c3ccc4nccn4c3)cc2C1` (stereo not shown) [Example 73, 1-{5-Imidazo[1,2-a]pyridin-6-yl-2-[3-(7H-pyrrolo[2,3-d]pyrimidin-4-yl)phenyl]-2,3-dihydro-1H-inden-2-yl}methanamine], the IC50 on Tyro3 is greater than 3 µM.

The values above are taken from patent US10053465B2 (Incyte Corporation, priority 2015, dated 2018).
